row,Compound,melting point
1,CC(C)(C)OC(=O)N1CCCC1c1ccnc(-c2nc(=O)c3ccccc3s2)c1 (stereo unspecified),195 to 196 °C
2,O=C(O)COc1cc(F)ccc1C(=O)NCc1nc2cc(C(F)(F)F)ccc2s1,206 to 208 °C
3,COC(=O)CCn1c(=O)n(CCN2CCN(c3cccc(C(F)(F)F)c3)CC2)c(=O)c2cscc21,87 to 88 °C
4,CCOC(=O)c1ccc(-c2ccc(OC)c(Br)c2)cc1,114 to 115 °C
5,CC(=S)NCC1CN(c2ccc(C(=O)Oc3c(F)c(F)c(F)c(F)c3F)c(F)c2)C(=O)O1 (stereo unspecified),163 to 164 °C
6,CCCc1c(/C=C/c2ccccc2C)nc2ccc(C(=O)O)cn2c1=O,190 to 191 °C
7,Cn1cc(SCc2ccccc2)c(=O)c(-c2ccccc2)c1,155 to 157 °C
8,CCCNC(=O)CN1C(=O)C2(COc3cc4c(cc32)CCO4)c2ccccc21 (stereo unspecified),207 to 209 °C
9,COc1ccc2c3c(ccc2c1)-c1ccccc1C3c1ccc(OCCN2CCCCC2)cc1 (stereo unspecified),130 to 133 °C
10,CC1(C)CCC(C)(C)c2cc(C(N)C(=O)Nc3ccc(C(=O)OCc4ccccc4)cc3)ccc21 (stereo unspecified),196 to 197 °C
11,CCOC(=O)C(C)C(NC(C)=O)C(C(C)=O)C(=O)OC (stereo unspecified),93 to 96 °C
12,CSCOC1CCC2C3CCC4=CC(=O)C=CC4(C)C3(F)C(O)CC12C (stereo unspecified),224 to 225 °C
13,COC(=O)C=C(C)C=CC1(O)C(C)=CC(=O)c2ccccc21 (stereo unspecified),147 to 148 °C
14,O=C1CC(OCc2ccccc2)C2COC1O2 (stereo unspecified),118 to 119 °C
15,CN=Cc1cnc(-c2ccccc2Cl)s1,81 to 83 °C
16,CCCc1cccn2c(=O)c(-c3nnn[nH]3)cnc12,269 to 272 °C
17,Cc1cn(C(C(=O)N(C)C)C2CCCCC2)nc1-c1ccccc1 (stereo unspecified),102 to 104 °C
18,COc1ccc(-c2c3c(nn2-c2ccccc2)-c2cccc(N)c2C3=O)cc1,273 °C
19,Cc1nc(Cc2ccc([N+](=O)[O-])cc2)no1,66 to 67 °C
20,CCOC(=O)CCN(C)CC(C(=O)OC)c1cc(OC)c(CC)c(OC)c1 (stereo unspecified),74 to 75 °C
21,O=c1[nH]c(=O)n(CCCCN2CC=C(c3ccccc3)CC2)c2ccccc12,170 to 174 °C
22,COc1c(C)c(C(O)(c2cccnc2)C(C)C)c(OC)c2ccccc12 (stereo unspecified),130 to 131 °C
23,Nc1nc2c(sc(=O)n2C2OC(CO)C(O)C2F)c(=O)[nH]1 (stereo unspecified),232 to 234 °C
24,CCCCCCCCCCNC(=O)c1cc(C(=O)NCCCCCCCCCC)cc(N(CCCC(=O)OCC)CCCC(=O)OCC)c1,75 to 77 °C
25,O=c1c2cc(O)ccc2nc(C(S)c2ncnc3[nH]cnc23)n1-c1ccccc1Cl (stereo unspecified),186 to 214 °C
26,CCN(CC)CCNc1ccc2c3c(nn2CCN(CC)CC)-c2c(O)ccc(O)c2C(=O)c13,152 °C

row,Compound,melting point
1,Cc1cc(C)n(-c2nc(Nc3ccc(N4CCOCC4)cc3)c3ccccc3n2)n1,268 to 270 °C
2,N#Cc1ccc(Cl)cc1OC[C@@H]1CO1,85 to 86 °C
3,O=C(C=Cc1cccnc1)N1CCc2c([nH]c3ccccc23)C1c1ccc2c(c1)OCO2 (stereo unspecified),240 °C
4,CC(C)OC(=O)c1cc(-n2c(=O)[nH]c3c(c2=O)CSC3)c(F)cc1Cl,180 to 183 °C
5,N=c1ccccn1CC(O)COc1cccc2ccccc12 (stereo unspecified),138 to 141 °C
6,CN(C)c1c([N+](=O)[O-])c(C(C)(C)C)nn1-c1c(Cl)cc(C(F)(F)F)cc1Cl,81 to 83 °C
7,CC(=O)N1CC2CC2(c2ccccc2)C1 (stereo unspecified),63 to 65 °C
8,CN(C)CC(=O)NCc1nc(C(=O)N(C)C)nn1-c1ccc(Cl)cc1C(=O)c1ccccc1Cl,122 to 124 °C
9,COC(=O)Cc1ccc(C(C)=O)s1,43 to 44 °C
10,CCN1CC(C)Oc2cccc3nc4c(c1c23)CCCC4 (stereo unspecified),101 to 103 °C
11,Cc1cn(-c2cccc(C3=Nc4ccc(C#Cc5ccc(F)cc5)cc4NC(=O)C3)c2)cn1,210 °C
12,Nc1nc2c(ncn2[C@H]2C=C[C@@H](O)CC2)c(=O)[nH]1 (racemic),> 300 °C
13,Cc1c(Br)cc2[nH]c(=O)c(=O)[nH]c2c1[N+](=O)[O-],> 340 °C
14,CCCCn1ccc(-c2ccc3c(c2)OCCN3C2CCOCC2)c(Cl)c1=O,141 °C
15,COC(=O)c1ccc(-c2ccc3cc(OCc4ccccc4)c(C45CC6CC(CC(C6)C4)C5)cc3c2)s1,170 to 171 °C
16,O=C(N(C=Cc1ccc(F)cc1)C=Cc1ccc(F)cc1)C1(O)CSc2ccccc21 (stereo unspecified),150 to 151 °C
17,C=C(C)C(=O)Nc1ccc(NC(=O)C(F)(F)C(F)(F)C(F)(F)F)c(O)c1,247 to 250 °C
18,CC(=N)Nc1ccc(NC(C)=O)cc1,131 to 134 °C
19,CCCCCCCCCCCCn1sncc1=O,68 to 70 °C
20,COc1cc(OC)c2c(=O)[nH]c(-c3cc(C)c(OCCN4CCOCC4)c(C)c3)cc2n1,212 to 213 °C
21,COC(=O)C1=Cc2cc(-c3ccc(N4CCOCC4)cc3)ccc2N(C=O)CC1,178 to 181 °C
22,COc1cc(C)nc(NC(=O)NS(=O)(=O)c2ccccc2N=NN(C)C)n1,158 to 160 °C
23,O=C1C[C@]2(CCCC[C@H]2Cc2ccccc2)S(=O)(=O)CCN1Cc1cccnc1,220 to 221 °C
24,O=C(O)C1CCc2c(sc3cc(F)ccc23)C1 (stereo unspecified),195 to 198 °C
25,COc1ccccc1OCC(O)CN1CCC(NC(=O)NC(=O)c2ccc(F)cc2)CC1 (stereo unspecified),194 to 195 °C
26,O=C(c1cccc(C(F)(F)F)c1)N(CCCCn1ccnc1)C1=Nc2cccc3cccc1c23,165 to 167 °C

row,Compound,melting point
1,COc1ccc(-c2c3c(c(C)c4ccc(OC)cc24)C(=O)NC3=O)cc1,282 to 284 °C
2,CC(C)(C)c1cc(CCC(=O)NCCNc2ccc(C#N)cc2)cc(C(C)(C)C)c1O,146 to 148 °C
3,CC1CCN(c2nc(N)c3ccccc3n2)CC1,190 °C
4,CC(C)OCCNC(=O)c1n[nH]cc1NC(=O)c1ccccn1,163 to 164 °C
5,CCCCCCC(=N)NC(=S)Nc1ccc(SC)cc1,100 to 101 °C
6,CC(C)Oc1cccc(C2(C)CN(C)CCC2O)c1 (stereo unspecified),75 to 76 °C
7,Oc1ccc(F)cc1-c1cc(-c2ccc(-c3ccccc3)cc2)cc(-c2ccc3ccccc3c2)n1,187 to 188 °C
8,CC(C)(CNc1ccnc2cc(Cl)ccc12)NCc1cccc(C(F)(F)F)c1,156 to 157 °C
9,CN(C(N)=O)C1CCCc2sccc21 (stereo unspecified),152 to 154 °C
10,CN(CCN1CCN(c2cccc(C(F)(F)F)n2)CC1)C(=O)c1ccc(F)cc1,144 °C
11,Cn1cc(C=O)c2ccc3oc4ccccc4c3c21,163 to 165 °C
12,COC(=O)c1cc(-c2ccc3c(c2)CCO3)n[nH]c1=O,192 to 200 °C
13,COc1cc(S(C)(=O)=O)ccc1-c1ccc(C#N)c(=O)[nH]1,280 to 282 °C
14,Cc1nc(O)cc(C2(c3ccc(Cl)cc3)CCC2)n1,130 to 140 °C
15,CCOC(=O)Cc1ccc(NC(=O)/C=C/c2cnn(C)c2-c2ccc(F)cc2)cc1,177 to 178 °C
16,CC(=O)NC[C@H]1CN(c2ccc(N3CCN(c4ccc([N+](=O)[O-])o4)CC3)c(F)c2)C(=O)O1,191 to 204 °C
17,CCOc1nc(O)c(C#N)s1,132 °C
18,COc1ccc(/C(=C\C=C\C(=O)NCCCCc2cccnc2)c2cccnc2)cc1,108 to 110 °C
19,COCCOc1ccc(COC(=O)NS(=O)(=O)c2ccc(Cl)cc2)c(Oc2ncc(C(F)(F)F)cc2Cl)c1,112 to 115 °C
20,O=C(O)Cc1cc(Cl)c2c(c1)CCC(c1ccccc1F)N2 (stereo unspecified),127 to 129 °C
21,C=CCOc1ccc(CC(=O)O)cc1,61 to 62 °C
22,O=C1c2ccccc2C(=O)c2sc(-c3ccc(F)cc3)nc21,> 260 °C
23,CC1(C)SC2C(NC(=O)Cc3ccccc3)C(=O)N2C1NC(=O)OCC(Cl)(Cl)Cl (stereo unspecified),223 to 224 °C
24,O=C1CN(c2ccc(Cc3ccccc3)cc2)C(=S)N1Cc1ccccc1,107 °C
25,CCCCCCCCCCCCCCCCCCOC(=O)Nc1ccc(NC(=O)NS(=O)(=O)c2ccc3ccccc3c2)cc1,178 °C
26,C=C(Cc1ccc(-c2ccccc2)cc1)CN1CCC(C)CC1,53 °C

row,Compound,melting point
1,O=S1(=O)CCCSC(S)=N1,134 °C
2,O=C(O)c1cc(Cl)c(Cl)c2c1OCC(CO)O2 (stereo unspecified),175 to 177 °C
3,CC1N=C(c2ccccc2)c2cc(Cl)ccc2NC1=O (stereo unspecified),224 °C
4,COC(=O)CS(=O)(=O)N1CC=C(c2ccc(-c3ccccc3)cc2)CC1,182 to 183 °C
5,CCOC(=O)c1ccc(NC=O)c(C(=O)CCNC(=O)OC(C)(C)C)c1,135 to 137 °C
6,CNC(=O)N(C)C(=O)N1CCN(c2ccccc2)CC1,79 to 80 °C
7,CC(C)(Oc1ccc(C#N)cc1)C(O)Cc1ccncn1 (stereo unspecified),96 to 98 °C
8,Cc1[nH]c(=O)cc2c1CC(c1ccccn1)CC2 (stereo unspecified),260 °C
9,CC(=O)NC(NNc1ccccc1)C(=O)NCc1ccccc1 (stereo unspecified),132 to 134 °C
10,CC12CCC3c4ccc(OC(=O)Cc5ccccc5)cc4CCC3C1CCC2=O (stereo unspecified),114 to 116 °C
11,COc1ccc2c(c1)CC(CC#N)C2=O (stereo unspecified),117 to 120 °C
12,CC(C)(C)OC(=O)N1CCN(c2ccc(-c3ccnc(Cl)n3)cn2)CC1,182 to 183 °C
13,O=C(NCCc1cccc(-c2nc(=O)c3ccccc3s2)n1)Nc1ccccc1,235 to 236 °C
14,Clc1cnc(Oc2cccc(OCc3ccc(Cl)cc3Cl)c2)nc1,110 °C
15,NC(=S)NN=C(CNC(=O)Cc1ccccc1)c1ccccc1,170 to 172 °C
16,CCCCCC12CCC(C(=O)O)(CC1)CC2,160 °C
17,Nc1ccc(Oc2ccccc2-c2ccccc2Oc2ccc(N)cc2)cc1,157 to 158 °C
18,O=c1nc(-c2ccccn2)sc2cc(C(F)(F)F)ccc12,176 to 177 °C
19,O=C(O)c1ncn2c1[C@@H]1CCN1C(=O)c1cc(F)ccc1-2,159 to 160 °C
20,COc1ccc(Cl)cc1C1(F)C(=O)Nc2c(C(F)(F)F)cccc21 (stereo unspecified),230 to 233 °C
21,O=C(NCc1ccc(F)cc1)c1ccnc(N2CCN(Cc3ccc(F)c(F)c3)C2=O)c1,165 to 167 °C
22,COc1cc2cc3c(nc2cc1OC)CCc1ccc(N)cc1-3,185 °C
23,COc1cccc(OC)c1-c1ccc(C[C@H](NC(=O)c2c(Cl)cccc2Cl)C(=O)O)cc1NC(C)=O,142 to 144 °C

# Source: a melting point compilation (Tetko et al.; mined from patent text by program, amines drawn as free bases though some values may be those of a salt)
